The text below walks through data of patent US10246444B2, “1,2-dithiolane and dithiol compounds useful in treating mutant EGFR-mediated diseases and conditions” (Sabila Biosciences LLC, priority 2017, dated 2019).

One assay has as its target EGFR WT (wild type EGFR) (Homo sapiens (Human), UniProt P00533). The assay can be described thus: KINOMEscan competition binding assay (Kd). As to conditions: read-out: Kd Activity Level (EGFR WT).
Assay [1] addresses T1, EGFR (L858R) (Homo sapiens (Human), UniProt P00533, L858R). Description: KINOMEscan competition binding assay (Kd). As to conditions: read-out: Kd Activity Level (EGFR L858R).
The target in assay [2] is T1, EGFR (L858R). The assay can be described thus: KinaseSeeker rabbit reticulocyte lysate competition binding assay (IC50).
The target of a further assay is EGFR WT (Homo sapiens (Human), UniProt P00533). The description is as above.
Sequence of EGFR WT (P00533 25-1210): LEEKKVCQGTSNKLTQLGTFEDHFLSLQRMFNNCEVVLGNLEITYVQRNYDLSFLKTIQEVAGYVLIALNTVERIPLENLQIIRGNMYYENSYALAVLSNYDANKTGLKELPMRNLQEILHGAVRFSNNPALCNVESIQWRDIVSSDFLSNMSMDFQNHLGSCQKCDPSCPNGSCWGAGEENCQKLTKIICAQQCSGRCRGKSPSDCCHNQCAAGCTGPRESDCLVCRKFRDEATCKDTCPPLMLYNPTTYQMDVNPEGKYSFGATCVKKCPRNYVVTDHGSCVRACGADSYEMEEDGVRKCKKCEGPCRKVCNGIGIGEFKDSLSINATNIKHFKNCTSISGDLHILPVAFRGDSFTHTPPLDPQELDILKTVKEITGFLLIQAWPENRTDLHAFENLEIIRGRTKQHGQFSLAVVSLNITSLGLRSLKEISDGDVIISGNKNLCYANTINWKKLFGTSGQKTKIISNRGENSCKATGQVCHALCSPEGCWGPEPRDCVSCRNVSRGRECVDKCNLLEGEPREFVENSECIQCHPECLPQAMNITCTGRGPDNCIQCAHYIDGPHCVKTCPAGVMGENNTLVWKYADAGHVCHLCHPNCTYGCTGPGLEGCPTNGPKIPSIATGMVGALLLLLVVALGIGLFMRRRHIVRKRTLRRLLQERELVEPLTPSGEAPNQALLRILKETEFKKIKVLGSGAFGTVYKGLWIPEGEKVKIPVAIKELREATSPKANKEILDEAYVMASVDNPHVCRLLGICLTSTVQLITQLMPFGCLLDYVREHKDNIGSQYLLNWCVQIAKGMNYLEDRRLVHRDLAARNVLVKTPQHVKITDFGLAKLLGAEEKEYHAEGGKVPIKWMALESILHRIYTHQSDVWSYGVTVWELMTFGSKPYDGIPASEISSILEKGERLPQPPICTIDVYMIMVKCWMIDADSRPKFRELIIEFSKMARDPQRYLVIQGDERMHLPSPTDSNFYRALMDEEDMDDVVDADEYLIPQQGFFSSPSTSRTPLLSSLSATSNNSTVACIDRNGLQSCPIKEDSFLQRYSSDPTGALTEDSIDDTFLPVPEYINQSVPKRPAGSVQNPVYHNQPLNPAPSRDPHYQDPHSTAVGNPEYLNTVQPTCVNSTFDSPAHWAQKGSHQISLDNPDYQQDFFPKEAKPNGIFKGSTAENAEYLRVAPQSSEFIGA
Another assay deals with HER2 (Homo sapiens (Human), UniProt P04626). The assay is described as above.
Another assay has as its target EGFR S752-I759del (Homo sapiens (Human), UniProt P00533, DEL752-759). The assay can be described thus: KINOMEscan competition binding assay (Kd). As to conditions: KINOMEscan binding constant; read-out: Kd Activity Level (EGFR S752-I759del).
Another assay deals with EGFR E746-A750del (Homo sapiens (Human), UniProt P00533, DEL746-750). The assay can be described thus: KINOMEscan competition binding assay (Kd). As to conditions: KINOMEscan binding constant; read-out: Kd Activity Level (EGFR E746-A750del).
In another assay the target is EGFR L858R/T790M (Homo sapiens (Human), UniProt P00533, L858R/T790M). The assay can be described thus: KINOMEscan competition binding assay (Kd). As to conditions: KINOMEscan binding constant; read-out: Kd Activity Level (EGFR L858R/T790M).
Sequence of EGFR L858R/T790M (P00533 25-1210 T790M/L858R): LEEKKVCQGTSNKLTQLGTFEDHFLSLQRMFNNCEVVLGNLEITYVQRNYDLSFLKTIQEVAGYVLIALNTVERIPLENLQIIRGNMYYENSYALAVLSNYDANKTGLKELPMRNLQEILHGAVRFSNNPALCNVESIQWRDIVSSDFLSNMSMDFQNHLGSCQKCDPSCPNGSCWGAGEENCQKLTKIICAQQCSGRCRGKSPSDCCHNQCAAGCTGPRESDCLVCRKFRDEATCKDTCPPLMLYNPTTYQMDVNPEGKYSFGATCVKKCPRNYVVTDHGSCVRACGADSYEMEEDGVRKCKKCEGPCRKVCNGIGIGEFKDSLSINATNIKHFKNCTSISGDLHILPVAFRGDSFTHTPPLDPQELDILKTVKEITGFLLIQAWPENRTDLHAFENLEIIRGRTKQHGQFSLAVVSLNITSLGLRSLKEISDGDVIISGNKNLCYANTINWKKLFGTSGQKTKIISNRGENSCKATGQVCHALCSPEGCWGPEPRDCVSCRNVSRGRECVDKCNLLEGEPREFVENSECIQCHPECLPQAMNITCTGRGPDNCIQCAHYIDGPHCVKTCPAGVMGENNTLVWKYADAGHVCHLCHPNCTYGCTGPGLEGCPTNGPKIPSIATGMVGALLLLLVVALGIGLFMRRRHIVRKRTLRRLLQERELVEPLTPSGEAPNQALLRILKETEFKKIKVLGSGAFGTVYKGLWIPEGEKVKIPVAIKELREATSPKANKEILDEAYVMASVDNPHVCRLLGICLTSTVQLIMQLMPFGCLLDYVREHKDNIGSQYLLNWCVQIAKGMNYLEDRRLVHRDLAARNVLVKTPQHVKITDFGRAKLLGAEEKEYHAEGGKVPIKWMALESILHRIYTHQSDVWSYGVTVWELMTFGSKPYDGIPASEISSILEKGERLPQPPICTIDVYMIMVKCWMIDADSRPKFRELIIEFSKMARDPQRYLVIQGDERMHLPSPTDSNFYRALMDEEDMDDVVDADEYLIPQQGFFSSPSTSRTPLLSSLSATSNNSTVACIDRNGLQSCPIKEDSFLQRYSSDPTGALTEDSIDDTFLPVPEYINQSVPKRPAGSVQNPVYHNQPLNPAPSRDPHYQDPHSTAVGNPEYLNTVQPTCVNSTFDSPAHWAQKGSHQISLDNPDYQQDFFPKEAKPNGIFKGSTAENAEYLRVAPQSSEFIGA
Setting [3] is: read-out: IC50 Activity level EGFR L858R, KinaseSeeker, Table 18.

Where two headings read alike, the source gives them in different places.

Sequence of EGFR WT (wild type EGFR) (P00533 25-1210): as the sequence (P00533 25-1210) above
T1 sequence (P00533 25-1210 L858R): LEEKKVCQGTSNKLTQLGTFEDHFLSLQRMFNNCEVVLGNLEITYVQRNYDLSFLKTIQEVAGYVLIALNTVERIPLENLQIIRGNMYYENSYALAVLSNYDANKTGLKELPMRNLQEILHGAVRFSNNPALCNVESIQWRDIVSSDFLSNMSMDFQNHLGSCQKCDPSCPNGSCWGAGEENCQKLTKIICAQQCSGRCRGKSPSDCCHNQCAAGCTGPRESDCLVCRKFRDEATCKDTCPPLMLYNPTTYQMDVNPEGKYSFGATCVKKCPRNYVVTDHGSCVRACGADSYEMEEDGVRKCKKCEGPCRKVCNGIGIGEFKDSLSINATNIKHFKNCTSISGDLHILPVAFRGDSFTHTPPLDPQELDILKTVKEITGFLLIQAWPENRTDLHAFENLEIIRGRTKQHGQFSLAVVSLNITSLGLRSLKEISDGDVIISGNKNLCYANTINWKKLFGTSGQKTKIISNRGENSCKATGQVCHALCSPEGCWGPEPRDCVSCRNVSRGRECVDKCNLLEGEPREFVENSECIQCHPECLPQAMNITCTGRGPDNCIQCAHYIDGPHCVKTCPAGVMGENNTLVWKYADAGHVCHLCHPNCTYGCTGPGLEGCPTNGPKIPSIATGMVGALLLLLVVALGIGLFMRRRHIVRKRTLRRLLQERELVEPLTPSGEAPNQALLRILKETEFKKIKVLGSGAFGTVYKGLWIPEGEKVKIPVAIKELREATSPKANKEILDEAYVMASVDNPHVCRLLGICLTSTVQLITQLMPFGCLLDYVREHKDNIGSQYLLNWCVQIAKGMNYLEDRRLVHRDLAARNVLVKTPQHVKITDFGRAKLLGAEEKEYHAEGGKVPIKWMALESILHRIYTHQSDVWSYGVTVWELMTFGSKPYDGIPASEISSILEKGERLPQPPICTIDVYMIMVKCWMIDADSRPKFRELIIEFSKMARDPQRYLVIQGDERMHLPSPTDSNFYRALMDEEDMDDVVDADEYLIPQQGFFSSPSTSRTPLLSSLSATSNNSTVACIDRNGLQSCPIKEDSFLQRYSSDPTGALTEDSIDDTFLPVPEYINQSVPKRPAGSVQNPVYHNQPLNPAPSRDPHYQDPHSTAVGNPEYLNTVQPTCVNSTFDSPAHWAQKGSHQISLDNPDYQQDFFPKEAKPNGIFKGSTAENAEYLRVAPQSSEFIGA
Sequence of EGFR S752-I759del (P00533 other isoform, or with tags, fused parts or gaps del 1-668/del 752-759/del 1012-1210 limits assumed): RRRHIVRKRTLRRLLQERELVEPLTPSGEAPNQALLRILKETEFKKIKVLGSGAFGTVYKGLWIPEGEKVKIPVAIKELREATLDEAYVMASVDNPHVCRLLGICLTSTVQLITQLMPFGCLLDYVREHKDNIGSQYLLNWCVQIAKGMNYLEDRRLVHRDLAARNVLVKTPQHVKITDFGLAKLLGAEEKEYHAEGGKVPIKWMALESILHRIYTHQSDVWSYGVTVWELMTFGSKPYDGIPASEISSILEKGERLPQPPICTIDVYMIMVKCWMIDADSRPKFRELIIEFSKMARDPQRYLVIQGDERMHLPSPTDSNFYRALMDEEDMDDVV

As for `CC1(C)OC[C@H](COc2cc3ncc(C#N)c(Nc4ccc(OCc5cccc(F)c5)c(Cl)c4)c3cc2NC(=O)C[C@@H]2CCSS2)O1` (single isomer, unassigned; isomer 1) [80 isomer 1], the Kd on EGFR WT (wild type EGFR) and on EGFR (L858R) [1] was 1 to 99 nM in each case.

On to `CC1(C)OC[C@@H](COc2cc3ncc(C#N)c(Nc4ccc(OCc5cccc(F)c5)c(Cl)c4)c3cc2NC(=O)CC2CCSS2)O1` (single isomer, unassigned; isomer 1) [84 isomer 1], for which the Kd at EGFR WT (wild type EGFR) and on EGFR (L858R) [1] was 1 to 99 nM each time.

Turning to `CC1(C)OC[C@H](COc2cc3ncc(C#N)c(Nc4ccc(OCc5cccc(F)c5)c(Cl)c4)c3cc2NC(=O)C[C@H]2CCSS2)O1` (single isomer, unassigned; isomer 2) [80 isomer 2], the Kd on EGFR WT (wild type EGFR) and at EGFR (L858R) [1] was 1 to 99 nM throughout.

Regarding `CC1(C)OC[C@H](COc2cc3ncc(C#N)c(Nc4ccc(OCc5cccc(F)c5)c(Cl)c4)c3cc2NC(=O)CC2CCSS2)O1` (single isomer, unassigned; isomer 2) [84 isomer 2], the Kd on EGFR WT (wild type EGFR) and on EGFR (L858R) [1] was 1 to 99 nM each time.

Turning to `CCOc1cc2ncc(C#N)c(Nc3ccc(F)c(Cl)c3)c2cc1NC(=O)C1CSSC1` [Example 31, N-(4-((3-Chloro-4-fluorophenyl)amino)-3-cyano-7-ethoxyquinolin-6-yl)-1,2-dithiolane-4-carboxamide], the IC50 at EGFR (L858R) [2], at EGFR WT and on HER2 was 100 to 999 nM each time.

Regarding `CCOc1cc2ncc(C#N)c(Nc3ccc(F)c(Cl)c3)c2cc1NC(=O)C1CCSS1` (stereo not drawn) [Example 33, N-(4-((3-Chloro-4-fluorophenyl)amino)-3-cyano-7-ethoxyquinolin-6-yl)-1,2-dithiolane-3-carboxamide], the Kd at EGFR WT (wild type EGFR) and at EGFR (L858R) [1] was 1 to 99 nM throughout. The IC50 at EGFR (L858R) [2] was in the range of 1 to 99 nM.

`CCOc1cc2ncc(C#N)c(Nc3ccc(OCc4cccc(F)c4)c(Cl)c3)c2cc1NC(=O)C(CSC(C)=O)CSC(C)=O` [Example 34]: the Kd at EGFR S752-I759del is 100 to 999 nM; on EGFR WT (wild type EGFR), 1 to 99 nM; on EGFR E746-A750del it was 100 to 999 nM; on EGFR (L858R) [1] it was 1 to 99 nM; at EGFR L858R/T790M, > 10000 nM. Further, the IC50 fell in the range of 1 to 99 nM on EGFR (L858R) [2], 100 to 999 nM on EGFR WT and 100 to 999 nM on HER2.

Regarding `CCOc1cc2ncc(C#N)c(Nc3ccc(OCc4cccc(F)c4)c(Cl)c3)c2cc1NC(=O)C1CSSC1` [Example 36, N-(4-((3-Chloro-4-((3-fluorobenzyl)oxy)phenyl)amino)-3-cyano-7-ethoxyquinolin-6-yl)-1,2-dithiolane-4-carboxamide], the Kd on EGFR S752-I759del was 1 to 99 nM; on EGFR WT (wild type EGFR) it was 1 to 99 nM; at EGFR E746-A750del it was 1 to 99 nM; on EGFR (L858R) [1] it was 1 to 99 nM; at EGFR L858R/T790M, > 10000 nM. The IC50 on EGFR (L858R) [2] is 1 to 99 nM; on EGFR WT it was 100 to 999 nM; at HER2, 100 to 999 nM.

Consider `CCOc1cc2ncc(C#N)c(Nc3ccc(F)c(Cl)c3)c2cc1NC(=O)CC(CCSCc1ccccc1)SCc1ccccc1` (stereo not drawn) [Example 38, 3,5-Bis(benzylthio)-N-(4-((3-chloro-4-fluorophenyl)amino)-3-cyano-7-ethoxyquinolin-6-yl)pentanamide], for which the IC50 on EGFR (L858R) [2] was in the range of 1000 to 10000 nM.

At EGFR (L858R) [2], `CCOc1cc2ncc(C#N)c(Nc3ccc(F)c(Cl)c3)c2cc1NC(=O)CC1CCSS1` (stereo not drawn) [Example 39, N-(4-((3-Chloro-4-fluorophenyl)amino)-3-cyano-7-ethoxyquinolin-6-yl)-2-(1,2-dithiolan-3-yl)acetamide] came in with an IC50 of 100 to 999 nM.

With `CCOc1cc2ncc(C#N)c(Nc3ccc(F)c(Cl)c3)c2cc1NC(=O)CCCCC1CCSS1` (stereo not drawn) [Example 42, N-(4-(3-Chloro-4-fluorophenylamino)-3-cyano-7-ethoxyquinolin-6-yl)-5-(1,2-dithiolan-3-yl)pentanamide], the IC50 at EGFR (L858R) [2], on EGFR WT and on HER2 was 100 to 999 nM in each case.

The molecule `CCOc1cc2ncc(C#N)c(Nc3ccc(OCc4cccc(F)c4)c(Cl)c3)c2cc1NC(=O)CCCCC1CCSS1` (stereo not drawn) [Example 44] displayed an IC50 on EGFR (L858R) [2] of 1 to 99 nM.

As to `Cc1ccc(Oc2ccc(Nc3c(C#N)cnc4ccc(NC(=O)CC5CCSS5)cc34)cc2C)cn1` (stereo not drawn) [Example 55, N-(3-Cyano-4-((3-methyl-4-((6-methylpyridin-3-yl)oxy)phenyl)amino)quinolin-6-yl)-2-(1,2-dithiolan-3-yl)acetamide], the IC50 is > 10000 nM at EGFR (L858R) [2] (setting [3]); > 10000 nM at EGFR WT (read-out: IC50 Activity level EGFR WT, KinaseSeeker, Table 18); > 10000 nM on HER2 (read-out: IC50 Activity level HER2, KinaseSeeker, Table 18).

Take `CC(=O)Nc1ccc2ncc(C#N)c(Nc3ccc(OCc4cccc(F)c4)c(Cl)c3)c2c1` [Example 58, N-(4-((3-Chloro-4-((3-fluorobenzyl)oxy)phenyl)amino)-3-cyanoquinolin-6-yl)acetamide]: the IC50 on EGFR (L858R) [2] (setting [3]) was > 10000 nM.

Turning to `CC(=O)SCC(CSC(C)=O)C(=O)Nc1ccc2ncc(C#N)c(Nc3ccc(OCc4cccc(F)c4)c(Cl)c3)c2c1` [Example 60, S,S′-(2-((4-((3-Chloro-4-((3-fluorobenzyl)oxy)phenyl)amino)-3-cyanoquinolin-6-yl)carbamoyl)propane-1,3-diyl)diethanethioate], the half-inhibitory concentration (IC50) at EGFR (L858R) [2] was in the range of 1 to 99 nM; at EGFR WT, 100 to 999 nM.

As to `CC1(C)OC[C@H](COc2cc3ncc(C#N)c(Nc4ccc(OCc5cccc(F)c5)c(Cl)c4)c3cc2NC(=O)CC2CCSS2)O1` (stereo partly drawn) [Example 79, N-(4-((3-Chloro-4-((3-fluorobenzyl)oxy)phenyl)amino)-3-cyano-7-(((S)-2,2-dimethyl-1,3-dioxolan-4-yl)methoxy)quinolin-6-yl)-2-(1,2-dithiolan-3-yl)acetamide], the Kd on EGFR WT (wild type EGFR) and on EGFR (L858R) [1] was 1 to 99 nM in each case.

Turning to `N#Cc1cnc2cc(OC[C@H](O)CO)c(NC(=O)C[C@H]3CCSS3)cc2c1Nc1ccc(OCc2cccc(F)c2)c(Cl)c1` [Example 81, N-(4-((3-Chloro-4-((3-fluorobenzyl)oxy)phenyl)amino)-3-cyano-7-((R)-2,3-dihydroxypropoxy)quinolin-6-yl)-2-(1,2-dithiolan-3S-yl) acetamide], the Kd on EGFR S752-I759del is 1 to 99 nM; at EGFR WT (wild type EGFR), 1 to 99 nM; at EGFR E746-A750del it was 1 to 99 nM; at EGFR (L858R) [1], 1 to 99 nM; on EGFR L858R/T790M, > 10000 nM. Besides, the IC50 on EGFR (L858R) [2] fell in the range of 1 to 99 nM; at EGFR WT, 100 to 999 nM; at HER2 it was 100 to 999 nM.

As to `N#Cc1cnc2cc(OC[C@H](O)CO)c(NC(=O)CC3CCSS3)cc2c1Nc1ccc(OCc2cccc(F)c2)c(Cl)c1` (stereo partly drawn) [Example 82, N-(4-((3-Chloro-4-((3-fluorobenzyl)oxy)phenyl)amino)-3-cyano-7-((R)-2,3-dihydroxypropoxy)quinolin-6-yl)-2-(1,2-dithiolan-3-yl)acetamide], the Kd was 1 to 99 nM on EGFR S752-I759del; 1 to 99 nM at EGFR WT (wild type EGFR); 1 to 99 nM at EGFR E746-A750del; 1 to 99 nM at EGFR (L858R) [1]; > 10000 nM at EGFR L858R/T790M. The IC50 on EGFR (L858R) [2] lay within 1 to 99 nM; at EGFR WT, 100 to 999 nM; at HER2 it was 100 to 999 nM.

As for `CC(=O)SCC(CSC(C)=O)C(=O)Nc1cc2c(Nc3ccc(OCc4cccc(F)c4)c(Cl)c3)c(C#N)cnc2cc1OC[C@H](O)CO` [Example 94, (R)—S,S′-(2-((4-((3-Chloro-4-((3-fluorobenzyl)oxy)phenyl)amino)-3-cyano-7-(2,3-dihydroxypropoxy)quinolin-6-yl)carbamoyl)propane-1,3-diyl)diethanethioate], the Kd on EGFR WT (wild type EGFR) and at EGFR (L858R) [1] was 1 to 99 nM throughout.

On to `COc1cc2ncnc(Nc3ccc(Oc4ccc(C)nc4)c(C)c3)c2cc1NC(=O)C1CSSC1` [Example 104, N-(7-Methoxy-4-((3-methyl-4-((6-methylpyridin-3-yl)oxy)phenyl)amino)quinazolin-6-yl)-1,2-dithiolane-4-carboxamide], for which the IC50 at EGFR (L858R) [2], on EGFR WT and on HER2 was 100 to 999 nM in each case.

As for `COc1cc2ncnc(Nc3ccc(OCc4cccc(F)c4)c(Cl)c3)c2cc1NC(=O)C(CSC(C)=O)CSC(C)=O` [Example 109, S,S′-(2-((4-((3-Chloro-4-((3-fluorobenzyl)oxy)phenyl)amino)-7-methoxyquinazolin-6-yl)carbamoyl)propane-1,3-diyl)diethanethioate], the IC50 at EGFR (L858R) [2] and at EGFR WT was 1 to 99 nM each time.

In the case of `COc1cc2ncnc(Nc3ccc(OCc4cccc(F)c4)c(Cl)c3)c2cc1NC(=O)C1CSSC1` [Example 110, N-(4-((3-Chloro-4-((3-fluorobenzyl)oxy)phenyl)amino)-7-methoxyquinazolin-6-yl)-1,2-dithiolane-4-carboxamide], the 50% inhibitory concentration (IC50) on EGFR (L858R) [2] and at EGFR WT was 1 to 99 nM each time.

As usually defined, the IC50 is the point on the concentration scale where inhibition reaches its midpoint.
